Measured values taken from patent US6242440A, “Synergistic compositions comprising an oxathiazine and a benzothiophene-2-carboxamide-S,S-dioxide” (Janssen Pharmaceutica N.V., priority 1997, dated 2001).

Experiments:
Sclerophoma = experiment: wood stick test (Scots Pine); type: cell-based, Sclerophoma entoxylina
Protocol: (§1) Oven-dried wood sticks (50×12×2 mm) of Scots Pine (Pinus sylvestris) were dipped during 3 hours in a methanol solution comprising a compound of formula (I), a compound of formula (II), or a combination of a compound of formula (I) and a compound of formula (II), and allowed to dry overnight in a sterile laminar air flow. In each Petri dish one stick was placed on culture medium, PDA PS (Potato Dextrose Agar containing 60 mg penicillin and 200 mg streptomycin), previously seeded with inoculum. Two drops of fungal or spore suspension were pipetted on the upper surface of the stick The Petri dishes were incubated at 22° C. and 70% relative humidity. The test was evaluated after sufficient growth of the fungus on the control sticks. The following score system was used:
(§2) 0: sticks free of fungal growth
(§3) 1: traces of growth on the stick
(§4) 2: slight growth (5 to 25% of the surface covered)
(§5) 3 : moderate growth (25 to 50% of the surface covered)
(§6) 4: vigorous to maximum growth (more tha 50% covered)
(§7) To calculate synergism results were converted to the next artificial activities:
(§8) Yhe expected activities E were calculated by using the so-called formula of Colby: (Colby, S. R. Weeds 1967, 15: 20-22), [formula]
(§9) wherein X and Y express the relative activities obtained for each of the active ingredients. A synergistic effect can be acknowledged if the found activity exceeds calculated activity.
(§10) The compound of formula (I) used in the experiment was 3-benzo[b]-thien-2-yl)-5,6-dihydro-1,4,2-oxathiazine 4-oxide, i.e. compound (1). The compound of formula (II) used in the experiment was N-cyclohexyl-benzothiophene-2-carboxamide-S,S-dioxide, i.e. compound (2).

Aureobasidium = experiment: wood stick test (Scots Pine); type: cell-based, Aureobasidium pullulans; details: read-out: measured (relative) activity %
Protocol: as §1, §2, §3, §4, §5, §6, §7, §8, §9, §10

Aureobasidium pullulans = experiment: poison plate assay, mycelial growth and sporulation; type: cell-based
Protocol: (§11) The efficacy of the active ingredients against mycelial growth and sporulation of Aureobasidium pullulans, Aspergillus niger, Scierophoma entoxylina, Trichodenna viride, was determined in the poison plate assay. The required concentrations of the fungicide(s) were obtained by diluting the active ingredients (I), (II) or the combination of (I) and (II) in dimethyl sulfoxide (DMSO) at 800 times the final test concentration. The stock solutions in DMSO were pipetted into Petri-dishes. Malt extract agar (3%) was added aseptically and uniform distribution was obtained by shaking. Each plate was spot inoculated with a spore or mycelial suspension. After incubation at 22° C. and 70% relative humidity for a period long enough to allow complete growth of controls, diameters of colonies were measured. Relative activities were calculated by taking the absence of fungal growth (diameter 0 mm) as 100%. From the activity of the active ingredients alone, the expected activities E were calculated by using the so-called formula of Colby: (Colby, S. R. Weeds 1967, 15: 20-22), [formula]
as §9
(§12) Equal efficacy was observed whenever complete inhibition of fungal growth occurred by one of the active ingredients (I) or (II) alone. The compound of formula (I) used in the experiment was 3-benzo[b]-thien-2-yl)-5,6-dihydro-1,4,2-oxathiazine 4-oxide, i.e. compound (1). The compound of formula (II) used in the experiment was N-cyclohexyl-benzothiophene-2-carboxamide-S,S-dioxide, i.e. compound (2).

Trichoderma viride = experiment: as above; type: cell-based
Protocol: as §11, §9, §12

Sclerophoma entoxylina = experiment: as above; type: cell-based
Protocol: as §11, §9, §12

Aspergillus niger = experiment: as above; type: cell-based
Protocol: as §11, §9, §12

Aspergillus = experiment: wood stick test (Scots Pine); type: cell-based, Aspergillus niger
Protocol: as §1, §2, §3, §4, §5, §6, §7, §8, §9, §10

SMILES: O=C(NC1CCCCC1)C1=Cc2ccccc2S1(=O)=O [compound (2), N-cyclohexyl-benzothiophene-2-carboxamide-S,S-dioxide]
- % overgrown of the sticks (Sclerophoma; (2) 200 ppm): 100%
- stick test scores (Sclerophoma; (2) 200 ppm): 4 (vigorous to maximum growth (more tha 50% covered))
- % overgrown of the sticks (Sclerophoma; (2) 400 ppm): 100%
- stick test scores (Sclerophoma; (2) 400 ppm): 4 (vigorous to maximum growth (more tha 50% covered))
- % overgrown of the sticks (Sclerophoma; (2) 800 ppm): 25%
- stick test scores (Sclerophoma; (2) 800 ppm): 2 (slight growth (5 to 25% of the surface covered))
- activity at 200 ppm (Sclerophoma; Sclerophoma entoxylina, (2) 200 ppm, read-out: measured (relative) activity %): 0%
- activity at 400 ppm (Sclerophoma; Sclerophoma entoxylina, (2) 400 ppm, read-out: measured (relative) activity %): 0%
- activity at 800 ppm (Sclerophoma; Sclerophoma entoxylina, (2) 800 ppm, read-out: measured (relative) activity %): 75%
- activity at 200 ppm (Aureobasidium; (2) 200 ppm): 0%
- activity at 400 ppm (Aureobasidium; (2) 400 ppm): 75%
- activity at 800 ppm (Aureobasidium; (2) 800 ppm): 95%
- activity measured (Aureobasidium pullulans; Exp 1, 5 days, (2) 2.5 mg/l): 8%
- growth (Aureobasidium pullulans; Exp 1, 5 days, (2) 2.5 mg/l): 35 mm
- activity measured (Aureobasidium pullulans; Exp 1, 5 days, (2) 5 mg/l): 16%
- growth (Aureobasidium pullulans; Exp 1, 5 days, (2) 5 mg/l): 32 mm
- activity measured (Aureobasidium pullulans; Exp 1, 5 days, (2) 10 mg/l): 37%
- growth (Aureobasidium pullulans; Exp 1, 5 days, (2) 10 mg/l): 24 mm
- activity measured (Aureobasidium pullulans; Exp 1, 5 days, (2) 20 mg/l): 53%
- growth (Aureobasidium pullulans; Exp 1, 5 days, (2) 20 mg/l): 18 mm
- activity measured (Aureobasidium pullulans; Exp 2, 7 days, (2) 2.5 mg/l): 2%
- growth (Aureobasidium pullulans; Exp 2, 7 days, (2) 2.5 mg/l): 47 mm
- activity measured (Aureobasidium pullulans; Exp 2, 7 days, (2) 5 mg/l): 6%
- growth (Aureobasidium pullulans; Exp 2, 7 days, (2) 5 mg/l): 45 mm
- activity measured (Aureobasidium pullulans; Exp 2, 7 days, (2) 10 mg/l): 8%
- growth (Aureobasidium pullulans; Exp 2, 7 days, (2) 10 mg/l): 44 mm
- activity measured (Aureobasidium pullulans; Exp 2, 7 days, (2) 20 mg/l): 23%
- growth (Aureobasidium pullulans; Exp 2, 7 days, (2) 20 mg/l): 37 mm
- activity measured (Trichoderma viride; Exp 1, 5 days, (2) 2.5 mg/l): 0%
- growth (Trichoderma viride; Exp 1, 5 days, (2) 2.5 mg/l): 49 mm
- activity measured (Trichoderma viride; Exp 1, 5 days, (2) 5 mg/l): 0%
- growth (Trichoderma viride; Exp 1, 5 days, (2) 5 mg/l): 49 mm
- activity measured (Trichoderma viride; Exp 1, 5 days, (2) 10 mg/l): 0%
- growth (Trichoderma viride; Exp 1, 5 days, (2) 10 mg/l): 49 mm
- activity measured (Trichoderma viride; Exp 1, 5 days, (2) 20 mg/l): 14%
- growth (Trichoderma viride; Exp 1, 5 days, (2) 20 mg/l): 42 mm
- activity measured (Trichoderma viride; Exp 2, 7 days, (2) 2.5 mg/l): 0%
- growth (Trichoderma viride; Exp 2, 7 days, (2) 2.5 mg/l): 49 mm
- activity measured (Trichoderma viride; Exp 2, 7 days, (2) 5 mg/l): 0%
- growth (Trichoderma viride; Exp 2, 7 days, (2) 5 mg/l): 49 mm
- activity measured (Trichoderma viride; Exp 2, 7 days, (2) 10 mg/l): 8%
- growth (Trichoderma viride; Exp 2, 7 days, (2) 10 mg/l): 45 mm
- activity measured (Trichoderma viride; Exp 2, 7 days, (2) 20 mg/l): 24%
- growth (Trichoderma viride; Exp 2, 7 days, (2) 20 mg/l): 37 mm
- activity measured (Sclerophoma entoxylina; Exp 1, 5 days, (2) 2.5 mg/l): 7%
- growth (Sclerophoma entoxylina; Exp 1, 5 days, (2) 2.5 mg/l): 40 mm
- activity measured (Sclerophoma entoxylina; Exp 1, 5 days, (2) 5 mg/l): 16%
- growth (Sclerophoma entoxylina; Exp 1, 5 days, (2) 5 mg/l): 36 mm
- activity measured (Sclerophoma entoxylina; Exp 1, 5 days, (2) 10 mg/l): 19%
- growth (Sclerophoma entoxylina; Exp 1, 5 days, (2) 10 mg/l): 35 mm
- activity measured (Sclerophoma entoxylina; Exp 1, 5 days, (2) 20 mg/l): 40%
- growth (Sclerophoma entoxylina; Exp 1, 5 days, (2) 20 mg/l): 26 mm
- activity measured (Sclerophoma entoxylina; Exp 2, 7 days, (2) 2.5 mg/l): 2%
- growth (Sclerophoma entoxylina; Exp 2, 7 days, (2) 2.5 mg/l): 48 mm
- activity measured (Sclerophoma entoxylina; Exp 2, 7 days, (2) 5 mg/l): 4%
- growth (Sclerophoma entoxylina; Exp 2, 7 days, (2) 5 mg/l): 47 mm
- activity measured (Sclerophoma entoxylina; Exp 2, 7 days, (2) 10 mg/l): 16%
- growth (Sclerophoma entoxylina; Exp 2, 7 days, (2) 10 mg/l): 41 mm
- activity measured (Sclerophoma entoxylina; Exp 2, 7 days, (2) 20 mg/l): 29%
- growth (Sclerophoma entoxylina; Exp 2, 7 days, (2) 20 mg/l): 35 mm
- activity measured (Aspergillus niger; Exp 1, 5 days, (2) 2.5 mg/l): 0%
- growth (Aspergillus niger; Exp 1, 5 days, (2) 2.5 mg/l): 44 mm
- activity measured (Aspergillus niger; Exp 1, 5 days, (2) 5 mg/l): 5%
- growth (Aspergillus niger; Exp 1, 5 days, (2) 5 mg/l): 42 mm
- activity measured (Aspergillus niger; Exp 1, 5 days, (2) 10 mg/l): 23%
- growth (Aspergillus niger; Exp 1, 5 days, (2) 10 mg/l): 34 mm
- activity measured (Aspergillus niger; Exp 1, 5 days, (2) 20 mg/l): 70%
- growth (Aspergillus niger; Exp 1, 5 days, (2) 20 mg/l): 13 mm
- activity measured (Aspergillus niger; Exp 2, 7 days, (2) 2.5 mg/l): 2%
- growth (Aspergillus niger; Exp 2, 7 days, (2) 2.5 mg/l): 44 mm
- activity measured (Aspergillus niger; Exp 2, 7 days, (2) 5 mg/l): 2%
- growth (Aspergillus niger; Exp 2, 7 days, (2) 5 mg/l): 44 mm
- activity measured (Aspergillus niger; Exp 2, 7 days, (2) 10 mg/l): 9%
- growth (Aspergillus niger; Exp 2, 7 days, (2) 10 mg/l): 41 mm
- activity measured (Aspergillus niger; Exp 2, 7 days, (2) 20 mg/l): 36%
- growth (Aspergillus niger; Exp 2, 7 days, (2) 20 mg/l): 29 mm
- % overgrown of the sticks (Aspergillus; (2) 200 ppm): 100%
- stick test scores (Aspergillus; (2) 200 ppm): 4 (vigorous to maximum growth (more tha 50% covered))
- % overgrown of the sticks (Aspergillus; (2) 400 ppm): 100%
- stick test scores (Aspergillus; (2) 400 ppm): 4 (vigorous to maximum growth (more tha 50% covered))
- % overgrown of the sticks (Aspergillus; (2) 800 ppm): 100%
- stick test scores (Aspergillus; (2) 800 ppm): 4 (vigorous to maximum growth (more tha 50% covered))
- activity at 200 ppm (Aspergillus; Aspergillus, (2) 200 ppm, read-out: measured (relative) activity %): 0%
- activity at 400 ppm (Aspergillus; Aspergillus, (2) 400 ppm, read-out: measured (relative) activity %): 0%
- activity at 800 ppm (Aspergillus; Aspergillus, (2) 800 ppm, read-out: measured (relative) activity %): 0%
